According to the supplement of paper PMC10307832:

Experiments:
Experiment in all cases: relative viability (nuclei count vs DMSO), 5 days (fraction); higher = more cells survive
[1] = compound: O=C(/C=C/c1cccnc1)NCCCCC1CCN(C(=O)c2ccccc2)CC1 [Daporinad] + CC(C)C[C@H](NC(=O)[C@H](Cc1ccccc1)NC(=O)c1cnccn1)B(O)O [Bortezomib] (partner 0.002 µM)
Outline: (§1)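 Lung cancer cell lines, seeded in 1536-well plates, were treated the following day by pin tool with a single drug or with five library-drug doses (not always all listed) in √10 steps on top of a fixed anchor-drug dose. Cells were fixed and nuclei stained in one step after 5 days, and nuclei were counted. Relative viability is the nuclei count for treated wells divided by that for vehicle wells, reported as medians of duplicate plates.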

[2] = compound: COc1cc(Nc2ncc(F)c(Nc3ccc4c(n3)NC(=O)C(C)(C)O4)n2)cc(OC)c1OC [R406] + Cc1nc(NC(=O)N2CCC[C@H]2C(N)=O)sc1-c1ccnc(C(C)(C)C(F)(F)F)c1 [Alpelisib] (partner 2 µM)
Outline: as §1

[3] = compound: O=C(/C=C/c1cccnc1)NCCCCC1CCN(C(=O)c2ccccc2)CC1 [Daporinad] + NC(=O)Nc1cc(-c2cccc(F)c2)sc1C(=O)N[C@H]1CCCNC1 [AZD7762] (partner 0.2 µM)
Outline: as §1

[4] = compound: O=C(/C=C/c1cccnc1)NCCCCC1CCN(C(=O)c2ccccc2)CC1 [Daporinad] + CC(=O)c1c(C)c2cnc(Nc3ccc(N4CCNCC4)cn3)nc2n(C2CCCC2)c1=O [Palbociclib] (partner 0.5 µM)
Outline: as §1

Row | Cell Line | relative viability ([1]; first compound 0.0005 µM) | relative viability ([1]; first compound 0.001581 µM) | relative viability ([1]; first compound 0.005 µM) | relative viability ([1]; first compound 0.01581 µM) | relative viability ([2]; first compound 0.08 µM) | relative viability ([2]; first compound 0.253 µM) | relative viability ([2]; first compound 0.8 µM) | relative viability ([2]; first compound 2.53 µM) | relative viability ([2]; first compound 8 µM) | relative viability ([3]; first compound 0.0005 µM) | relative viability ([3]; first compound 0.001581 µM) | relative viability ([3]; first compound 0.005 µM) | relative viability ([3]; first compound 0.01581 µM) | relative viability ([4]; first compound 0.0005 µM) | relative viability ([4]; first compound 0.001581 µM) | relative viability ([4]; first compound 0.005 µM) | relative viability ([4]; first compound 0.01581 µM)
1 | NCI-H322M | 1.24 | 1.37 | 1.04 | 0.625 | 0.811 | 0.807 | 0.774 | 0.375 | 0.457 | 0.579 | 0.592 | 0.54 | 0.456 | 0.495 | 0.565 | 0.449 | 0.512
2 | PC-14 | 0.845 | 0.891 | 0.988 | 0.533 | 0.947 | 1.01 | 1.01 | 0.664 | 0.636 | 0.22 | 0.363 | 0.362 | 0.45 | 0.564 | 0.522 | 0.601 | 0.339
3 | HARA | 0.979 | 1.12 | 1.15 | 0.345 | 0.801 | 0.721 | 0.879 | 0.637 | 0.249 | 0.232 | 0.522 | 0.299 | 0.16 | 0.258 | 0.263 | 0.308 | 0.238
4 | NCI-H2087 | 0.676 | 0.644 | 0.868 | 0.662 | 0.959 | 1.06 | 1.11 | 1.09 | 0.757 | 1.21 | 1.41 | 1.37 | 1.17 | 0.215 | 0.242 | 0.224 | 0.243
5 | NCI-H1437 | 0.414 | 0.629 | 0.561 | 0.554 | 1 | 1.09 | 1.17 | 0.928 | 0.487 | 1.12 | 1.16 | 1.14 | 1.09 | 0.274 | 0.332 | 0.338 | 0.289
6 | NCI-H1792 | 0.924 | 0.98 | 0.711 | 1 | 0.626 | 0.665 | 0.752 | 0.541 | 0.563 | 0.55 | 0.702 | 0.756 | 0.955 | 0.637 | 0.694 | 0.654 | 0.681
7 | 201T | 1.08 | 1.11 | 1.07 | 1.11 | 1.03 | 1.02 | 1.04 | 0.979 | 0.86 | 0.572 | 0.673 | 0.671 | 0.535 | 0.379 | 0.347 | 0.329 | 0.375
8 | HCC-44 | 0.83 | 0.843 | 0.841 | 0.825 | 0.787 | 1 | 0.883 | 0.739 | 0.262 | 1.02 | 0.967 | 0.994 | 1.03 | 0.97 | 0.988 | 1.04 | 0.963
9 | NCI-H647 | 1.03 | 1.04 | 1.14 | 1.01 | 0.977 | 1.03 | 1.52 | 0.461 | 0.12 | 0.428 | 0.749 | 0.573 | 0.514 | 0.251 | 0.429 | 0.414 | 0.363
10 | H3255 | 0.642 | 0.806 | 0.865 | 0.888 | 0.693 | 0.746 | 0.623 | 0.511 | 0.418 | 0.869 | 1.04 | 1.03 | 0.972 | 0.308 | 0.322 | 0.344 | 0.33
11 | NCI-H650 | 0.622 | 0.817 | 0.669 | 0.833 | 1.25 | 1.04 | 1.16 | 0.87 | 0.802 | 0.931 | 0.775 | 1.32 | 1.06 | 0.351 | 0.423 | 0.329 | 0.367
12 | NCI-H23 | 1.18 | 0.919 | 0.888 | 0.427 | 0.638 | 0.759 | 0.786 | 0.732 | 0.438 | 0.273 | 0.181 | 0.274 | 0.203 | 0.578 | 0.467 | 0.463 | 0.275
13 | EKVX | 0.939 | 1.16 | 1.12 | 1.12 | 0.928 | 0.992 | 1.06 | 0.77 | 0.635 | 0.586 | 0.676 | 0.933 | 0.705 | 0.435 | 0.379 | 0.423 | 0.465
14 | EPLC-272H | 0.86 | 1.04 | 0.98 | 1.14 | 0.989 | 1.2 | 0.969 | 0.607 | 0.567 | 0.19 | 0.271 | 0.268 | 0.297 | 0.338 | 0.307 | 0.697 | 0.351
15 | NCI-H2126 | 1.07 | 1.14 | 1.13 | 1.15 | 0.721 | 0.851 | 0.75 | 0.723 | 0.625 | 1.1 | 0.976 | 0.992 | 1.04 | 0.358 | 0.32 | 0.356 | 0.36
16 | LXF-289 | 0.965 | 1.08 | 1.05 | 1.07 | 0.977 | 1.06 | 1.04 | 1 | 0.193 | 1.01 | 1.14 | 1.19 | 1.19 | 0.59 | 0.633 | 0.6 | 0.602

Row | Cell Line | relative viability ([1]; first compound 0.0005 µM) | relative viability ([1]; first compound 0.001581 µM) | relative viability ([1]; first compound 0.005 µM) | relative viability ([1]; first compound 0.01581 µM) | relative viability ([2]; first compound 0.08 µM) | relative viability ([2]; first compound 0.253 µM) | relative viability ([2]; first compound 0.8 µM) | relative viability ([2]; first compound 2.53 µM) | relative viability ([2]; first compound 8 µM) | relative viability ([3]; first compound 0.0005 µM) | relative viability ([3]; first compound 0.001581 µM) | relative viability ([3]; first compound 0.005 µM) | relative viability ([3]; first compound 0.01581 µM) | relative viability ([4]; first compound 0.0005 µM) | relative viability ([4]; first compound 0.001581 µM) | relative viability ([4]; first compound 0.005 µM) | relative viability ([4]; first compound 0.01581 µM)
17 | NCI-H2405 | 1 | 0.772 | 1.02 | 0.612 | 0.751 | 0.756 | 0.795 | 0.466 | 0.205 | 0.786 | 0.856 | 0.792 | 0.357 | 0.54 | 0.577 | 0.555 | 0.415
18 | NCI-H1755 | 0.928 | 0.969 | 0.935 | 0.971 | 0.834 | 1.05 | 1.04 | 0.632 | 0.21 | 0.429 | 0.43 | 0.462 | 0.5 | 0.456 | 0.441 | 0.415 | 0.431
19 | HCC-78 | 0.367 | 0.502 | 0.345 | 0.642 | 0.313 | 0.33 | 0.377 | 0.295 | 0.214 | 0.6 | 0.626 | 0.53 | 0.796 | 0.449 | 0.466 | 0.522 | 0.497
20 | LOU-NH91 | 0.532 | 0.465 | 0.559 | 0.559 | 0.726 | 0.718 | 0.789 | 0.51 | 0.449 | 0.761 | 0.803 | 0.905 | 0.816 | 0.442 | 0.519 | 0.548 | 0.509
21 | NCI-H3122 | 1.02 | 1.01 | 1.02 | 1.05 | 0.729 | 0.807 | 0.739 | 0.695 | 0.678 | 0.978 | 1.05 | 1.09 | 0.825 | 0.168 | 0.205 | 0.192 | 0.177
22 | HCC-827 | 1.06 | 0.965 | 1.14 | 1.13 | 1.04 | 0.903 | 1.03 | 0.827 | 0.282 | 0.219 | 0.23 | 0.263 | 0.287 | 0.419 | 0.486 | 0.5 | 0.435
23 | NCI-H1975 | 0.397 | 0.395 | 0.332 | 0.402 | 0.624 | 0.598 | 0.682 | 0.276 | 0.157 | 0.61 | 0.752 | 0.729 | 0.747 | 0.565 | 0.602 | 0.613 | 0.705
24 | NCI-H1651 | 0.953 | 0.952 | 1.01 | 0.788 | 0.9 | 1.03 | 1.04 | 0.699 | 0.512 | 0.486 | 0.475 | 0.554 | 0.477 | 0.537 | 0.528 | 0.5 | 0.522
25 | NCI-H460 | 1.1 | 1.17 | 1.05 | 1.05 | 0.495 | 0.476 | 0.665 | – | 0.0573 | 0.646 | 0.587 | 0.64 | 0.629 | 0.153 | 0.191 | 0.236 | 0.169
26 | LCLC-103H | 1.11 | 1 | 1.07 | 1.04 | 0.906 | 1.1 | 0.901 | 0.901 | 0.741 | 0.829 | 0.829 | 0.773 | 0.851 | 0.526 | 0.556 | 0.503 | 0.518
27 | LCLC-97TM1 | 0.302 | 0.604 | 0.657 | 0.533 | 0.209 | 0.265 | 0.267 | 0.202 | 0.256 | 0.209 | 0.274 | 0.238 | 0.195 | 0.194 | 0.191 | 0.24 | 0.235
28 | NCI-H838 | 0.795 | 1.2 | 0.828 | 0.443 | 0.971 | 1.11 | 1.16 | 0.547 | 0.541 | 1.02 | 1.02 | 0.894 | 0.837 | 0.254 | 0.258 | 0.29 | 0.199
29 | NCI-H1355 | 1.16 | 1.2 | 1.35 | 1.07 | 0.838 | 0.917 | 0.985 | 0.547 | 0.497 | 0.768 | 0.799 | 0.869 | 0.675 | 0.413 | 0.412 | 0.384 | 0.504
30 | HOP-62 | – | 0.84 | 0.962 | 0.26 | 0.779 | 1.04 | 0.886 | 1.09 | 0.913 | 0.406 | 0.423 | 0.665 | 0.262 | 0.399 | 0.437 | 0.479 | 0.423
31 | NCI-H2085 | 1 | 1.12 | 1.08 | 1.17 | 0.971 | 1.02 | 1.05 | 0.829 | 0.612 | 0.879 | – | 1.03 | 1.1 | 0.41 | – | 0.512 | 0.533
